EPA's ToxValDB 9.5 (doi:10.2903/j.efsa.2015.4302)

Assays:
[1] = test system: Anabaena flosaquae; settings: acute; duration: 72 hours
[2] = test system: Anas platyrhynchos; settings: reproductive
[3] = test system: Apis mellifera; settings: acute, mortality
[4] = test system: Colinus virginianus; settings: for LC50 / LD50: acute, oral, mortality; for LC50: diet
[5] = test system: Danio rerio; settings: short-term; duration: 168 hours; growth
[6] = test system: Daphnia magna; settings: chronic/long-term; duration: 21 days; reproduction
[7] = test system: Oncorhynchus mykiss; settings: chronic/long-term; duration: 85 days; growth
[8] = test system: Oryctolagus sp.; settings: repeat dose other; mortality
[9] = test system: Pimephales promelas; settings: chronic/long-term; duration: 255 days; growth
[10] = test system: Rattus norvegicus
[11] = test system: Skeletonema costatum; settings: acute; duration: 72 hours; growth
[12] = test system: Tagia sp.; settings: acute; duration: 14 days; mortality

Row | Compound | NOEC [1] [mg/L] | NOEL [2] [mg/kg-day] | LD50 ([3]; dermal) [µg/piece] | LD50 ([3]; oral, unspecified) [µg/piece] | LC50 [4] [mg/kg-day] | LD50 [4] [mg/kg-day] | NOEL ([4]; reproduction developmental) [mg/kg-day] | NOEC [5] [mg/L] | NOEC [6] [mg/L] | NOEC [7] [mg/L] | NOAEL [8] [mg/kg-day] | NOEC [9] [mg/L] | LD50 ([10]; acute, mortality) [mg/kg-day] | NOAEL ([10]; chronic) [mg/kg-day] | NOEC [11] [mg/L] | LC50 [12] [mg/kg]
1 | O=C(O)CNCP(=O)(O)O [Glyphosate] | 12 | 125 | > 100 | 100 | > 5200 | 4330 | 96.3 | 1 | 12.5 | 9.6 | 50 | 25.7 | > 2000 | 197 | 1.82 | 5600
2 | NCP(=O)(O)O [Aminomethylphosphonic acid] |  |  |  |  | > 5620 | > 2250 |  |  |  |  |  |  |  |  |  | 
